Test results taken from US20070128217A1 (priority 2003, published 2007).

Key:
[1] = system: control sera (pooled serum of ten healthy LUMC hospital workers; commercial negative donor pooled serum from the Dutch bloodbank); assay type: binding, human; set-up: Binding of Control serum LUMC to linear peptides / Binding of Control serum Blood-bank to linear peptides / Binding of Control serum LUMC to looped peptides / Binding of Control Serum Blood-Bank to Looped peptides / Binding of Control serum LUMC to linear peptides of the protein M of SARS-CoV Urbani / Binding of Control serum Blood-bank to linear peptides of the protein M of SARS-CoV Urbani / Binding of Control serum LUMC to looped peptides of the protein M of SARS-CoV Urbani / Binding of Control Serum Blood-Bank to Looped peptides of the protein M of SARS-CoV Urbani: unit not given here
[2] = system: rabbit serum obtained by immunizing a rabbit with the SARS-CoV strain Frankfurt 1; assay type: binding; set-up: Binding of a rabbit serum to linear peptides / Binding of a rabbit serum to looped peptides / Rabbit serum linear peptides / Rabbit serum looped peptides / Binding of a rabbit serum to linear peptides of protein N of SARS-CoV Urbani (Rabbit serum linear peptides) / Binding of a rabbit serum to looped/cyclic peptides of protein N of SARS-CoV Urbani (Rabbit serum looped peptides): unit not given here
[3] = system: antibodies in sera from SARS patients (sera 1a, 1b, 2, 6, 37, 62, London, SARS-yellow, SARS-green); assay type: binding, human; set-up: Binding of serum 6 to linear peptides of protein X1 of SARS-CoV Urbani / Binding of serum 37 to linear peptides of protein X1 of SARS-CoV Urbani / Binding of serum 6 to looped/cyclic peptide (PEPSCAN-ELISA) / Binding of serum 37 to looped/cyclic peptide (PEPSCAN-ELISA) / Binding of serum 37 to looped/cyclic peptides of protein X1 of SARS-CoV Urbani / Binding of serum 6 to linear peptides of protein X2 / Binding of serum 37 to linear peptides of protein X2 / Binding of serum 37 to looped/cyclic peptides of protein X2 of SARS-CoV Urbani / Binding of serum 6 to linear peptides of protein M of SARS-CoV Urbani / Binding of serum 37 to linear peptides of protein M of SARS-CoV Urbani / Binding of serum 6 to looped/cyclic peptides of protein M of SARS-CoV Urbani / Binding of serum 37 to looped/cyclic peptides of protein M of SARS-CoV Urbani / Binding of serum 6 to linear peptides of protein X3 of SARS-CoV Urbani / Binding of serum 37 to linear peptides of protein X3 of SARS-CoV Urbani / Binding of serum 37 to looped/cyclic peptides of protein X3 of SARS-CoV Urbani / Binding of serum 6 to linear peptides of protein X4 of SARS-CoV Urbani / Binding of serum 37 to linear peptides of protein X4 of SARS-CoV Urbani / Binding of serum 37 to looped/cyclic peptides of protein X4 of SARS-CoV Urbani / Binding of serum 6 to linear peptides of protein X5 of SARS-CoV Urbani / Binding of serum 37 to linear peptides of protein X5 of SARS-CoV Urbani / Binding of serum 37 to looped/cyclic peptides of protein X5 of SARS-CoV Urbani / Binding of serum 6 to linear peptides of protein N of SARS-CoV Urbani / Binding of serum 37 to linear peptides of protein N of SARS-CoV Urbani / Binding of serum 6 to linear peptide (PEPSCAN-ELISA) / Binding of serum 1a to looped/cyclic peptides of protein N of SARS-CoV Urbani / Binding of serum 1b to looped/cyclic peptides of protein N of SARS-CoV Urbani / Binding of serum 2 to looped/cyclic peptides of protein N of SARS-CoV Urbani / Binding of serum 6 to looped/cyclic peptides of protein N of SARS-CoV Urbani / Binding of serum 37 to looped/cyclic peptides of protein N of SARS-CoV Urbani / Binding of serum 62 to looped/cyclic peptides of protein N of SARS-CoV Urbani / Binding of serum London to looped/cyclic peptides of protein N of SARS-CoV Urbani / Binding of serum SARS-green to looped/cyclic peptides of protein N of SARS-CoV Urbani: unit not given here
[4] = system: recombinant human anti-SARS-CoV antibody 03-018; assay type: binding; set-up: Binding of antibody 03-018 to linear peptides of the N protein of SARS-CoV Urbani / Binding of antibody 03-018 to looped/cyclic peptides of the N protein of SARS-CoV Urbani: unit not given here

Sequence	Binding of a rabbit serum to linear peptides of protein N of SARS-CoV Urbani (Rabbit serum linear peptides) [2]	Binding of a rabbit serum to looped/cyclic peptides of protein N of SARS-CoV Urbani (Rabbit serum looped peptides) [2]	Binding of serum 1a to linear peptides of protein N of SARS-CoV Urbani [3]	Binding of serum 1a to looped/cyclic peptides of protein N of SARS-CoV Urbani [3]	Binding of serum 1b to linear peptides of protein N of SARS-CoV Urbani [3]	Binding of serum 1b to looped/cyclic peptides of protein N of SARS-CoV Urbani [3]	Binding of serum 2 to linear peptides of protein N of SARS-CoV Urbani [3]	Binding of serum 2 to looped/cyclic peptides of protein N of SARS-CoV Urbani [3]	Binding of serum 6 to linear peptides of protein N of SARS-CoV Urbani [3]	Binding of serum 6 to looped/cyclic peptides of protein N of SARS-CoV Urbani [3]	Binding of serum 37 to linear peptides of protein N of SARS-CoV Urbani [3]	Binding of serum 37 to looped/cyclic peptides of protein N of SARS-CoV Urbani [3]	Binding of serum 62 to linear peptides of protein N of SARS-CoV Urbani [3]	Binding of serum 62 to looped/cyclic peptides of protein N of SARS-CoV Urbani [3]	Binding of serum London to linear peptides of protein N of SARS-CoV Urbani [3]	Binding of serum London to looped/cyclic peptides of protein N of SARS-CoV Urbani [3]	Binding of serum SARS-green to linear peptides of protein N of SARS-CoV Urbani [3]	Binding of serum SARS-green to looped/cyclic peptides of protein N of SARS-CoV Urbani [3]	Binding of serum SARS-yellow to linear peptides of protein N of SARS-CoV Urbani [3]	Binding of serum SARS-yellow to looped/cyclic peptides of protein N of SARS-CoV Urbani [3]	other results
FAPSASAFFGMSRIG	0.0	0.3	0.2	0.3	0.1	0.1	0.2	0.4	0.1	0.3	0.6	0.5	0.5	0.4	0.4	0.9	0.4	0.0	0.5	0.5	Control Serum Blood-Bank Looped peptides [1]: 0.4; Control serum Blood-bank linear peptides [1]: 0.5; Control serum LUMC linear peptides [1]: 0.6; Control serum LUMC looped peptides [1]: 0.4; Binding of antibody 03-018 to linear peptides of the N protein of SARS-CoV Urbani [4]: 0.1; Binding of antibody 03-018 to looped/cyclic peptides of the N protein of SARS-CoV Urbani [4]: 0.2
FTALTQHGKEELRFP	0.2	0.1	0.3	0.2	0.2	0.1	0.3	0.3	0.2	0.1	0.8	0.4	0.7	0.3	0.5	0.2	0.7	0.0	0.6	0.1	Binding of Control Serum Blood-Bank to Looped peptides [1]: 0.5; Binding of Control serum Blood-bank to linear peptides [1]: 0.7; Binding of Control serum LUMC to linear peptides [1]: 0.7; Binding of Control serum LUMC to looped peptides [1]: 0.3; Binding of antibody 03-018 to linear peptides of the N protein of SARS-CoV Urbani [4]: 0.1; Binding of antibody 03-018 to looped/cyclic peptides of the N protein of SARS-CoV Urbani [4]: 0.2
